The supplement of paper PMC4862054

Tests used:
Test in all cases: normalised response (% of control), CellTox Green; higher = less cell death (100 = DMSO, 0 = benzethonium chloride kill control)
Conditions in all cases: incubation time: 72 h
MCF-10A = test system: MCF-10A
How it was run: (§1)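 CellTox Green fluorescence (485/520 nm) and, after 10 min at room temperature, CellTiter-Glo luminescence were read from breast cancer cell lines incubated 72 h in 384-well plates. Cells were seeded as 20 µl suspension onto compound at 5 concentrations in 10-fold steps over a 10,000-fold range chosen per compound. Each plate was normalised to 0.1 % DMSO (100) and a positive kill control (0). Values are normalised signals, one per concentration.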

MDA-MB-231 = test system: MDA-MB-231
How it was run: as §1

CAL-85-1 = test system: CAL-85-1
How it was run: as §1

HCC1937 = test system: HCC1937
How it was run: as §1

HCC1143 = test system: HCC1143
How it was run: as §1

BT-549 = test system: BT-549
How it was run: as §1

MDA-MB-436 = test system: MDA-MB-436
How it was run: as §1

Hs578T = test system: Hs578T
How it was run: as §1

CAL-148 = test system: CAL-148
How it was run: as §1

HDQ-P1 = test system: HDQ-P1
How it was run: as §1

HCC1599 = test system: HCC1599
How it was run: as §1

MDA-MB-468 = test system: MDA-MB-468
How it was run: as §1

BT-474 = test system: BT-474
How it was run: as §1

CAL-51 = test system: CAL-51
How it was run: as §1

CAL-120 = test system: CAL-120
How it was run: as §1

DU-4475 = test system: DU-4475
How it was run: as §1

MDA-MB-453 = test system: MDA-MB-453
How it was run: as §1

MFM-223 = test system: MFM-223
How it was run: as §1

Compound	normalised response (MCF-10A) [%]	normalised response (MDA-MB-231) [%]	normalised response (CAL-85-1) [%]	normalised response (HCC1937) [%]	normalised response (HCC1143) [%]	normalised response (BT-549) [%]	normalised response (MDA-MB-436) [%]	normalised response (Hs578T) [%]	normalised response (CAL-148) [%]	normalised response (HDQ-P1) [%]	normalised response (HCC1599) [%]	normalised response (MDA-MB-468) [%]	normalised response (BT-474) [%]	normalised response (CAL-51) [%]	normalised response (CAL-120) [%]	normalised response (DU-4475) [%]	normalised response (MDA-MB-453) [%]	normalised response (MFM-223) [%]
N#Cc1ccc(COC[C@H]2O[C@@H](n3c(NCc4ccc(Cl)c(Cl)c4)nc4c(N)ncnc43)[C@H](O)[C@@H]2O)cc1 (1000 nM)	92.3	114	97.6	90.4	115	123	96.5	103	107	106	102	143	100	119	96.4	103	112	104
N#Cc1ccc(COC[C@H]2O[C@@H](n3c(NCc4ccc(Cl)c(Cl)c4)nc4c(N)ncnc43)[C@H](O)[C@@H]2O)cc1 (10000 nM)	103	105		106	79.2	111	87.8	120	95.2	110	109	103	98.8	91.6	98.2	104	102	2.84
COc1cc(OC2CCN(C)CC2)ccc1Nc1ncc2c(n1)n(C1CCCC1)c(=O)n2C [AZ 3146] (1000 nM)	99.3		103	88.2	87.6	120	86	97.5	90.9	99.6	92.5	88.7	101	51.4	100	97.9	109	101
COc1cc(OC2CCN(C)CC2)ccc1Nc1ncc2c(n1)n(C1CCCC1)c(=O)n2C [AZ 3146] (10000 nM)	71	81.8	82.7	-6.06	86.7	105	47.3	98.7	60.4	86.1	53.3	75.5	70.2	27.1	94.6	90.2	105	104
CN(C)c1nc(N(C)C)nc(N(C)C)n1 [Altretamine] (1000 nM)	78	110	102	118	113	107	80.3	98.1	101	69.2	90.7	140	100	111	104	103	105	99.7
CN(C)c1nc(N(C)C)nc(N(C)C)n1 [Altretamine] (10000 nM)	102	112	87.6	104	109	97.2	97.5	112	91	94.3	103	152	102	109	102	98.3	105	96.6
O=C(/C=C/c1cccc(S(=O)(=O)Nc2ccccc2)c1)NO [Belinostat] (1000 nM)	70	22.3	51.1	117	100	129	79.3	77.3	66.4	103	86.1	97.7	65.2	50.8	70.4	75.8	99.5	78.5
O=C(/C=C/c1cccc(S(=O)(=O)Nc2ccccc2)c1)NO [Belinostat] (10000 nM)	54.6	-5.71	-19.3	80.3	79.7	103	112	37.3	26.6	76.1	93.8	43.3	21.2	-15.2	-14	76	88.7	62.1
O=P1(N(CCCl)CCCl)NCCCO1 (stereo not drawn) [Cyclophosphamide] (4000 nM)	86.7	113	100	124		98.7	97.3	62.1	104	112	105	100	100	112	101	102	105	94.8
O=P1(N(CCCl)CCCl)NCCCO1 (stereo not drawn) [Cyclophosphamide] (40000 nM)	76.1	102	92.4	102	71.3	100	105	50.5	102	107	107		99.1	105	98.7	100	106	102
C=C1C[C@@H]2[C@H](CC[C@]3(C)C(=O)CC[C@@H]23)[C@@]2(C)C=CC(=O)C=C12 [Exemestane] (1000 nM)	112	99.6	99	121	108	113	95.1		96.9	116	108	149	97.2	106	105	109	112	100
